Legend:
[1] = human
[2] = Times to onset, minimal and maximal, observed in the indexed observations. [column 'DELAI' in source]; details: human
[3] = human; remark: listed apart in the source
[4] = human; remark: listed apart in the source
[5] = human; remark: listed apart in the source
[6] = human; remark: listed apart in the source
[7] = human, serum
[8] = Highest frequency of moderate liver toxicity observed during clinical trials, expressed as a percentage. [column '% BIOL' in source]; details: human
[9] = human, serum, 4383 h
[10] = human; remark: listed apart in the source
[11] = human; remark: listed apart in the source
[12] = human; remark: listed apart in the source
[13] = human; remark: listed apart in the source
[14] = Highest frequency of acute liver toxicity observed during clinical trials, expressed as a percentage. [column '% AIGUE' in source]; details: human
[15] = human, serum; remark: listed apart in the source
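Wherever Hepatotoxicity (association with vascular disease) is given: count of indexed literature references reporting vascular liver injury in humans, e.g. peliosis hepatitis, hepatic veno-occlusive disease or Budd-Chiari syndrome.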
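Wherever Hepatotoxicity (benign tumour) is given: value is a count of indexed literature references citing a benign tumour confirmed by histopathology.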
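Wherever Hepatotoxicity (choleostasis) is given: human cholestatic liver injury, shown by histopathology or by peak ALT or AST elevation over alkaline phosphatase ratio below 2, value counts indexed literature reports.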
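Wherever Hepatotoxicity (chronic liver disease) is given: chronic liver injury confirmed by histopathology or persistently raised serum aminotransferase activity beyond 6 months, value given as the count of indexed literature references.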
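Wherever Hepatotoxicity (cirrhosis) is given: value is a count of indexed literature references reporting cirrhosis confirmed by histopathology.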
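Wherever Hepatotoxicity (cytolytic) is given: human cytolytic liver injury, shown by histopathology or by a ratio above 5 of peak ALT or AST elevation to alkaline phosphatase elevation, value counts indexed references.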
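Wherever Hepatotoxicity (granulomatous hepatitis) is given: value is a count of indexed literature references reporting granulomatous liver disease confirmed by histopathology.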
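Wherever Hepatotoxicity (malignant tumour) is given: malignant tumour confirmed by histopathology, value gives the count of indexed literature references reporting it.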
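Wherever Hepatotoxicity (severe hepatitis) is given: human clinical data: severe hepatitis, meaning potentially life-threatening liver failure or clinically observed cases, the value counts how many indexed literature references report it.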
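Wherever Hepatotoxicity (steatosis) is given: steatosis confirmed by histopathology, value is the count of indexed references.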

Row | Compound | Hepatotoxicity (benign tumour) [1] | Hepatotoxicity (time to onset) [2] | Hepatotoxicity (association with vascular disease) [3] | Hepatotoxicity (malignant tumour) [4] | Hepatotoxicity (steatosis) [5] | Hepatotoxicity (choleostasis) [6] | Hepatotoxicity (moderate) [7] | Hepatotoxicity (moderate) [8] [%] | Hepatotoxicity (chronic liver disease) [9] | Hepatotoxicity (cytolytic) [10] | Hepatotoxicity (granulomatous hepatitis) [11] | Hepatotoxicity (severe hepatitis) [12] | Hepatotoxicity (cirrhosis) [13] | Hepatotoxicity (acute) [14] [%] | Hepatotoxicity (acute) [15] | further results
1 | SPIRAMYCIN | 0 | 1 day - 4 weeks | 0 | 0 | 0 | 3 | 0 | 0 | 0 | 0 | 0 | 0 | 0 | 0 | 4 | –
2 | NCc1ccccc1CC(=O)N[C@@H]1C(=O)N2C(C(=O)O)=C(CSc3nnnn3CC(=O)O)CS[C@H]12 [CEFORANIDE] | 0 | 5 days - 3 weeks | 0 | 0 | 0 | 1 | 6 | 42.9 | 0 | 2 | 0 | 0 | 0 | 3.4 | 2 | –
3 | CCCCCNCC(N)=O [MILACEMIDE] | 0 | 3 weeks - 4 weeks | 0 | 0 | 0 | 1 | 3 | 70 | 0 | 1 | 0 | 0 | 0 | 0 | 1 | –
4 | CC(C)NCC(O)COc1ccc(CC(N)=O)cc1 (stereo not given) [ATENOLOL] | 0 | 2 days - 9 months | 0 | 0 | 1 | 1 | 1 | 10 | 0 | 1 | 0 | 0 | 0 | 0 | 2 | –
5 | CC[C@@H](CO)NC(=O)[C@@H]1C=C2c3cccc4c3c(cn4C)C[C@H]2N(C)C1 [METHYSERGIDE] | 0 | 5 years | 0 | 0 | 0 | 0 | 1 | 0 | 0 | 0 | 0 | 0 | 0 | 0 | 0 | –
6 | CC(C)=CCN1CC[C@]2(C)c3cc(O)ccc3C[C@H]1[C@H]2C [(+)-PENTAZOCINE] | 0 | < 3 months | 0 | 0 | 0 | 0 | 0 | 0 | 0 | 0 | 0 | 0 | 0 | 0 | 2 | –
7 | CN1C2CCCC1CC(NC(=O)c1nn(C)c3ccccc13)C2 (stereo not given) [GRANISETRON] | 0 | 1 week | 0 | 0 | 0 | 0 | 2 | 7.9 | 0 | 0 | 0 | 0 | 0 | 0 | 0 | –
8 | CCN(CC)CCNC(=O)c1cc(Cl)c(N)cc1OC [METOCLOPRAMIDE] | 0 | 2 days - 4 months | 1 | 0 | 0 | 0 | 2 | 6 | 0 | 1 | 0 | 0 | 0 | 0 | 1 | –
9 | COc1ccc(OC[C@H]2CN(C)CC[C@@H]2c2ccccc2)cc1 [FEMOXETINE] | 0 | 5 months | 0 | 0 | 0 | 0 | 0 | 0 | 0 | 1 | 0 | 1 | 0 | 0 | 1 | –
10 | CC1(C)S[C@@H]2[C@H](NC(=O)[C@H](NC(=O)N3CCN(S(C)(=O)=O)C3=O)c3ccccc3)C(=O)N2[C@H]1C(=O)O [MEZLOCILLIN] | 0 | 2 weeks - 3 weeks | 0 | 0 | 0 | – | 6 | – | 0 | – | – | – | 0 | – | 1 | Hepatotoxicity (choleostasis) ([6]; Liver): 1; Hepatotoxicity (moderate) ([8]; Liver): 25%; Hepatotoxicity (cytolytic) ([10]; Liver): 0; Hepatotoxicity (granulomatous hepatitis) ([11]; Liver): 0; Hepatotoxicity (severe hepatitis) ([12]; Liver): 0; Hepatotoxicity (acute) ([14]; Liver): 0%
11 | CO[C@@H]1[C@@H](O[C@@H]2O[C@H](C)[C@@H](O[C@H]3C[C@@](C)(O)[C@@H](OC(=O)CC(C)C)[C@H](C)O3)[C@H](N(C)C)[C@H]2O)[C@@H](CC=O)C[C@@H](C)[C@@H](O)/C=C/C=C/C[C@@H](C)OC(=O)C[C@H]1OC(C)=O [JOSAMYCIN] | 0 | 5 days - 2 weeks | 0 | 0 | 0 | 5 | 5 | 20 | 0 | 6 | 0 | 0 | 0 | 0 | 9 | –

From ChEMBL document CHEMBL3137667, “[Drug-induced liver injury; fourteenth updated edition of the bibliographic database of liver injuries and related drugs]” (Gastroenterol Clin Biol, 2004)
